Experimental data published in ChEMBL document CHEMBL1201862, “PubChem BioAssay data set” (2004).
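Growth conditions: 96-well plates. Treatment: test compound, 48 hours, 5 concentrations. Analysis: linear interpolation between bracketing concentrations; unreached endpoints set to highest concentration. Here, GI50 denotes the concentration required for 50% inhibition of growth.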 Activity calls are given as the source filed them. Cut-off read from the data, not from the text of the source: active = GI50 up to about 1.1 µM and inactive = higher.

Tests used:
Test in all cases: inhibition of tumour cell growth, NCI panel, 48 h
CCRF-CEM = test system: CCRF-CEM
HCT-15 = test system: HCT-15
HOP-62 = test system: HOP-62
IGROV-1 = test system: IGROV-1
M14 = test system: M14
MDA-MB-231 = test system: MDA-MB-231
MDA-MB-435 = test system: MDA-MB-435
Malme-3M = test system: Malme-3M
NCI-H460 = test system: NCI-H460
NCI-H522 = test system: NCI-H522
OVCAR-8 = test system: OVCAR-8
RXF 393 = test system: RXF 393
SK-MEL-2 = test system: SK-MEL-2
SK-OV-3 = test system: SK-OV-3
SW-620 = test system: SW-620
T47D = test system: T47D
UACC-257 = test system: UACC-257
UO-31 = test system: UO-31
NCI-H226 = test system: NCI-H226
SF-539 = test system: SF-539

Structure (SMILES): COc1cc(CCN)c(OC)c(OC)c1
- GI50 (CCRF-CEM): 34.8 µM (inactive)
- GI50 (HCT-15): > 100 µM
- GI50 (HOP-62): > 100 µM (inactive)
- GI50 (IGROV-1): > 100 µM (inactive)
- GI50 (M14): 58.7 µM (inactive)
- GI50 (MDA-MB-231): > 100 µM (inactive)
- GI50 (MDA-MB-435): 24.8 µM (inactive)
- GI50 (Malme-3M): > 100 µM (inactive)
- GI50 (NCI-H460): > 100 µM (inactive)
- GI50 (NCI-H522): > 100 µM (inactive)
- GI50 (OVCAR-8): > 100 µM (inactive)
- GI50 (RXF 393): > 100 µM (inactive)
- GI50 (SK-MEL-2): > 100 µM (inactive)
- GI50 (SK-OV-3): > 100 µM (inactive)
- GI50 (SW-620): 36.2 µM (inactive)
- GI50 (T47D): > 100 µM (inactive)
- GI50 (UACC-257): > 100 µM (inactive)
- GI50 (UO-31): > 100 µM (inactive)

Structure (SMILES): CN(C)CCn1c(=O)c2ccc(NCCN3CCNCC3)c3c(=O)c4ccccc4n(c1=O)c23
- GI50 (CCRF-CEM): 0.207 µM (active)
- GI50 (HCT-15): 1.53 µM
- GI50 (HOP-62): 4.06 µM (inactive)
- GI50 (IGROV-1): 0.345 µM (active)
- GI50 (M14): 4.84 µM (inactive)
- GI50 (MDA-MB-231): 2.56 µM (inactive)
- GI50 (MDA-MB-435): 2.86 µM (inactive)
- GI50 (Malme-3M): 4.12 µM (inactive)
- GI50 (NCI-H226): 2.38 µM (inactive)
- GI50 (NCI-H460): 0.586 µM (active)
- GI50 (NCI-H522): 1.07 µM (active)
- GI50 (OVCAR-8): 1.91 µM (inactive)
- GI50 (SF-539): 0.473 µM (active)
- GI50 (SK-MEL-2): 2.56 µM (inactive)
- GI50 (SK-OV-3): 3.45 µM (inactive)
- GI50 (SW-620): 0.378 µM (active)
- GI50 (T47D): 9.68 µM (inactive)
- GI50 (UACC-257): 4.07 µM (inactive)
- GI50 (UO-31): 4.94 µM (inactive)

Structure (SMILES): CCOC(=O)c1c(SC(=O)C(C)(C)Oc2ccc(Cl)cc2)n(-c2ccccc2)c(=S)n(-c2ccccc2)c1=O
- GI50 (CCRF-CEM): 30.1 µM (inactive)
- GI50 (HCT-15): 60.4 µM
- GI50 (HOP-62): 26 µM (inactive)
- GI50 (IGROV-1): 20.1 µM (inactive)
- GI50 (M14): 30.3 µM (inactive)
- GI50 (MDA-MB-231): 26.6 µM (inactive)
- GI50 (MDA-MB-435): 33 µM (inactive)
- GI50 (Malme-3M): 23 µM (inactive)
- GI50 (NCI-H226): 40 µM (inactive)
- GI50 (NCI-H460): 22.1 µM (inactive)
- GI50 (NCI-H522): 39.8 µM (inactive)
- GI50 (OVCAR-8): 19.6 µM (inactive)
- GI50 (RXF 393): 25.1 µM (inactive)
- GI50 (SF-539): 22.9 µM (inactive)
- GI50 (SK-OV-3): 45.6 µM (inactive)
- GI50 (SW-620): 22.6 µM (inactive)
- GI50 (T47D): 84.5 µM (inactive)
- GI50 (UACC-257): > 100 µM (inactive)

Structure (SMILES): COc1cc(O)cc(O)c1C(=O)CC(Cl)(Cl)Cl
- GI50 (CCRF-CEM): > 100 µM (inactive)
- GI50 (HCT-15): > 100 µM
- GI50 (HOP-62): > 100 µM (inactive)
- GI50 (IGROV-1): > 100 µM (inactive)
- GI50 (M14): > 100 µM (inactive)
- GI50 (MDA-MB-231): > 100 µM (inactive)
- GI50 (MDA-MB-435): > 100 µM (inactive)
- GI50 (Malme-3M): > 100 µM (inactive)
- GI50 (NCI-H226): > 100 µM (inactive)
- GI50 (NCI-H460): > 100 µM (inactive)
- GI50 (NCI-H522): > 100 µM (inactive)
- GI50 (OVCAR-8): > 100 µM (inactive)
- GI50 (RXF 393): > 100 µM (inactive)
- GI50 (SF-539): > 100 µM (inactive)
- GI50 (SK-OV-3): > 100 µM (inactive)
- GI50 (SW-620): > 100 µM (inactive)
- GI50 (T47D): > 100 µM (inactive)
- GI50 (UACC-257): > 100 µM (inactive)
- GI50 (UO-31): > 100 µM (inactive)

Structure (SMILES): CN(C)CCNc1nc2c(c(=O)n(C)c(=O)n2C)n1C
- GI50 (CCRF-CEM): > 100 µM (inactive)
- GI50 (HCT-15): > 100 µM
- GI50 (HOP-62): > 100 µM (inactive)
- GI50 (IGROV-1): > 100 µM (inactive)
- GI50 (M14): > 100 µM (inactive)
- GI50 (MDA-MB-231): > 100 µM (inactive)
- GI50 (MDA-MB-435): > 100 µM (inactive)
- GI50 (Malme-3M): > 100 µM (inactive)
- GI50 (NCI-H226): > 100 µM (inactive)
- GI50 (NCI-H460): > 100 µM (inactive)
- GI50 (NCI-H522): > 100 µM (inactive)
- GI50 (OVCAR-8): > 100 µM (inactive)
- GI50 (RXF 393): > 100 µM (inactive)
- GI50 (SF-539): > 100 µM (inactive)
- GI50 (SK-OV-3): > 100 µM (inactive)
- GI50 (SW-620): > 100 µM (inactive)
- GI50 (T47D): > 100 µM (inactive)
- GI50 (UACC-257): > 100 µM (inactive)
- GI50 (UO-31): > 100 µM (inactive)

Structure (SMILES): COc1ccc2c(c1OC)C(=O)N/C2=C\c1c(CCN(C)C)cc2c(c1OC)OCO2
- GI50 (CCRF-CEM): > 100 µM (inactive)
- GI50 (HCT-15): > 100 µM
- GI50 (HOP-62): > 100 µM (inactive)
- GI50 (IGROV-1): 38.6 µM (inactive)
- GI50 (M14): > 100 µM (inactive)
- GI50 (MDA-MB-231): 41.1 µM (inactive)
- GI50 (MDA-MB-435): 31.5 µM (inactive)
- GI50 (Malme-3M): 62.8 µM (inactive)
- GI50 (NCI-H226): > 100 µM (inactive)
- GI50 (NCI-H460): > 100 µM (inactive)
- GI50 (NCI-H522): 37.6 µM (inactive)
- GI50 (OVCAR-8): > 100 µM (inactive)
- GI50 (RXF 393): 22.7 µM (inactive)
- GI50 (SF-539): > 100 µM (inactive)
- GI50 (SK-OV-3): > 100 µM (inactive)
- GI50 (SW-620): > 100 µM (inactive)
- GI50 (T47D): 27.9 µM (inactive)
- GI50 (UACC-257): 51.2 µM (inactive)
